Here are results for 14 molecules from patent US7064217B2 (University of Virginia Patent Foundation, priority 2001, dated 2006).

What all share (assay type): biochemical
For one test, the target named is T1, hS1P2 (Homo sapiens, UniProt O95136).
T1 construct: expressed in transfected cells; host or cells: HEK293T
The experiment in a line: [γ-35S]GTP binding to HEK293T cell membranes, hS1P2. The settings on record: GTPγS binding; for EC50: read-out: EC50 Values (nM) for S1P Analogues at Recombinant S1P Receptors, hS1P2, HEK293; for activity at the S1P2 receptor: Example 3 series. As for the experimental part: (§1) Human or mouse S1P5 DNA was mixed with an equal amount of DNA encoding a rat Gi2R protein as well as DNAs encoding cow β1 and γ2 proteins and used to transfect monolayers of HEK293T cells using the calcium phosphate precipitate method. After 60 h, cells were harvested, and microsomes were prepared, aliquoted, and stored at −70° C. until use.
(§2) After incubating for 30 min at 30° C., bound radionuclide was separated from free by filtration through Whatman GF/C paper using a Brandel Cell Harvester (Gaithersburg, Md.).
(§3) Assay of cAMP accumulation was performed as described previously (See Im et al., J. Biol. Chem. 275, 14281–14286 (2000), the disclosure of which is incorporated herein). Assays were conducted on populations of 5×10^5 cells stimulated with 1 uM forskolin in the presence of the phosphodiesterase inhibitor […] (IBMX, 1 mM) for 15 min. cAMP was measured by automated radioimmunoassay. The GTPγS studies were performed using zebrafish S1P1 overexpressed rat RH-7777 and human hS1P1, hS1P2, hS1P3 and hS1P5 overexpressed human HEK293 cells.
(§4) An additional series of compounds was tested using the GTPγS binding assay described in Example 2 and in Im et al., J. Biol. Chem. 275, 14281–14286 (2000), the disclosure of which is incorporated herein).
Background: GTPγS is a poorly hydrolysed GTP analogue; its binding reports G protein activation.

The target of the next test is T2, hS1P1 (Homo sapiens, UniProt P21453).
T2 construct: expressed in transfected cells; host or cells: HEK293T
T2 sequence (P21453 whole entry): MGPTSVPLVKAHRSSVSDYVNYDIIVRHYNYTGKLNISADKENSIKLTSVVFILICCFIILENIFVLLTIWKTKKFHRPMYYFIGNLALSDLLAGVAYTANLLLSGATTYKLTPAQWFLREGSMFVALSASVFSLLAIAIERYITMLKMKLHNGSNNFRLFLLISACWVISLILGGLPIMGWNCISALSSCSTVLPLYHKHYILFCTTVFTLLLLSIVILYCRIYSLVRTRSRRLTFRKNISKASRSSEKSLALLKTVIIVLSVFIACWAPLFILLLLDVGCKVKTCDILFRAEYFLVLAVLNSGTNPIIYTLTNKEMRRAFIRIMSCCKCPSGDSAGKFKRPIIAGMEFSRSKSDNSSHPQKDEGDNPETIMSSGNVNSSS
Description: [γ-35S]GTP binding to HEK293T cell membranes, hS1P1. The settings on record: GTPγS binding; for EC50: read-out: EC50 Values (nM) for S1P Analogues at Recombinant S1P Receptors, hS1P1, HEK293. As for the experimental part:
as §1, §2, §3, §4

A further test has as its target T3, hS1P5 (Homo sapiens, UniProt Q9H228).
T3 construct: expressed in transfected cells; host or cells: HEK293T
Description: [γ-35S]GTP binding to HEK293T cell membranes, hS1P5. As to conditions: read-out: EC50 Values (nM) for S1P Analogues at Recombinant S1P Receptors, hS1P5; GTPγS binding; HEK293. As for the experimental part:
as §1, §2, §3, §4

A further test addresses T4, mS1P5 (Mus musculus, UniProt Q91X56).
T4 construct: expressed in transfected cells; host or cells: HEK293T
The experiment in a line: [γ-35S]GTP binding to HEK293T cell membranes, mS1P5. As to conditions: GTPγS binding. As for the experimental part:
as §1, §2, §3

Another test addresses T5, zS1P1 (Danio rerio, UniProt Q9DDK4).
T5 construct: expressed in transfected cells; host or cells: rat hepatoma RH-7777
T5 sequence (Q9DDK4 1-362): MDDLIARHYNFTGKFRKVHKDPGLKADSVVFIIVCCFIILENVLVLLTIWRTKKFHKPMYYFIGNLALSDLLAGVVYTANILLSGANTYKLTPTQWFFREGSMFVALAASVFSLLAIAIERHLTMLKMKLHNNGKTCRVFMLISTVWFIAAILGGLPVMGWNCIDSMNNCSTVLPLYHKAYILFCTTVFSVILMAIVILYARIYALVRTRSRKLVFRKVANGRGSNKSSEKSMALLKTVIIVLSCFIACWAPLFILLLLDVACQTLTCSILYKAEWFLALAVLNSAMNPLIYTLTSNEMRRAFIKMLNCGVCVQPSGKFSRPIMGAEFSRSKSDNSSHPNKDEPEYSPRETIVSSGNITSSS
The experiment in a line: [γ-35S]GTP binding, zebrafish S1P1 overexpressed in rat RH-7777 cells. As to conditions: GTPγS binding, zebrafish S1P1 in rat RH-7777. As for the experimental part:
as §2
Rat hepatoma RH7777 cell monolayers were transfected with human or mouse S1P5/pCR3.1 DNA using the calcium phosphate precipitate method, and clonal populations expressing the neomycin phosphotransferase gene were selected by addition of Ge-neticin (G418) to the culture medium. The RH7777 cells were grown in monolayers at 37° C. in a 5%CO2/95% air atmosphere in growth medium consisting of 90% MEM, 10% fetal bovine serum, 2 mM glutamine, and 1 mM sodium pyruvate.
as §3

A further test concerns the target T6, hS1P3 (Homo sapiens, UniProt Q99500).
T6 construct: expressed in transfected cells; host or cells: HEK293T
The experiment in a line: [γ-35S]GTP binding to HEK293T cell membranes, hS1P3. The settings on record: GTPγS binding; for EC50: read-out: EC50 Values (nM) for S1P Analogues at Recombinant S1P Receptors, hS1P3, HEK293; for activity at the S1P3 receptor (inverse agonism/antagonism or agonism): Example 3 series. The protocol:
as §1, §2, §3, §4

The test system of another test is S1P receptors. Description: [γ-35S]GTP binding assay, statements across the recombinant S1P receptors tested. The settings on record: GTPγS binding. The protocol: as §1, §2, §3, §4
A further test concerns the target T7, hS1P4 (Homo sapiens, UniProt O95977).
T7 construct: expressed in transfected cells; host or cells: HEK293T
T7 sequence (O95977 1-384): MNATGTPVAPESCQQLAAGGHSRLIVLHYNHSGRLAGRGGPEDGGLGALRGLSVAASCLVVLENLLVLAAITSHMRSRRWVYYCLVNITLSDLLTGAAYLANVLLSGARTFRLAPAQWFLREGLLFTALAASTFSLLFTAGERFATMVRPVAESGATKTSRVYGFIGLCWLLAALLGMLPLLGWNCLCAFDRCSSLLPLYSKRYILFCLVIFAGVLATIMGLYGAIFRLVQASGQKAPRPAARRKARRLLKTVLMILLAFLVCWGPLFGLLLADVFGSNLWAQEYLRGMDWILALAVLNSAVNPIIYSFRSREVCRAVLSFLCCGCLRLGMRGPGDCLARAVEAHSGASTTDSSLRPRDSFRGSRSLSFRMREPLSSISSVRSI
Description: [γ-35S]GTP binding to HEK293T cell membranes, hS1P4. The settings on record: GTPγS binding, primary alcohols. As for the experimental part:
as §2, §4

Where [1] appears, read: read-out: EC50 Values (nM) for S1P Analogues at Recombinant S1P Receptors, mS1P5.
[2] abbreviates: read-out: EC50 Values (nM) for S1P Analogues at Recombinant S1P Receptors, zS1P1.

Molecules are shown by their SMILES. Entries after “also recorded” stand apart in the source; their conditions may differ. Read-outs that look alike come from different tables or passages of the source.

T4 sequence (Q91X56 whole entry): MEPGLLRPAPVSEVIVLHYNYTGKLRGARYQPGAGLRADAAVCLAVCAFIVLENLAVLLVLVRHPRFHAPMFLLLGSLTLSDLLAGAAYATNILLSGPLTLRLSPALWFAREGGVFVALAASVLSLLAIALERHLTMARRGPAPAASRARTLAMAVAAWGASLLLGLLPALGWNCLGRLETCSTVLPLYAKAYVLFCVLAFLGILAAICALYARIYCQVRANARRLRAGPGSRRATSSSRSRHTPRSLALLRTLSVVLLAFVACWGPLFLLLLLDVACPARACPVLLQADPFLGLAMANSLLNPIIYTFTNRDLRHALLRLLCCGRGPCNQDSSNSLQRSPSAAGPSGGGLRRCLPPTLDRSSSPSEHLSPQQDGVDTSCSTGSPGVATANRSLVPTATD
T6 sequence (Q99500 whole entry): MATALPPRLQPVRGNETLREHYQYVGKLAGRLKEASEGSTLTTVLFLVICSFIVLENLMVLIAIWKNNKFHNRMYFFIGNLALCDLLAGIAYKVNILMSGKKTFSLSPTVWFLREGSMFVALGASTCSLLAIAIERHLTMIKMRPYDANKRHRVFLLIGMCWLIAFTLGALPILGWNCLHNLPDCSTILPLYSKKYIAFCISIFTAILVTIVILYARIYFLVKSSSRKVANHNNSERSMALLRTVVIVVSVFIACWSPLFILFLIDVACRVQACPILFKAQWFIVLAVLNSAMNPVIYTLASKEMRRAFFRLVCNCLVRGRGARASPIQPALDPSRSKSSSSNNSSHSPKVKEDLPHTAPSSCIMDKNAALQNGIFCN
T1 sequence (O95136 whole entry): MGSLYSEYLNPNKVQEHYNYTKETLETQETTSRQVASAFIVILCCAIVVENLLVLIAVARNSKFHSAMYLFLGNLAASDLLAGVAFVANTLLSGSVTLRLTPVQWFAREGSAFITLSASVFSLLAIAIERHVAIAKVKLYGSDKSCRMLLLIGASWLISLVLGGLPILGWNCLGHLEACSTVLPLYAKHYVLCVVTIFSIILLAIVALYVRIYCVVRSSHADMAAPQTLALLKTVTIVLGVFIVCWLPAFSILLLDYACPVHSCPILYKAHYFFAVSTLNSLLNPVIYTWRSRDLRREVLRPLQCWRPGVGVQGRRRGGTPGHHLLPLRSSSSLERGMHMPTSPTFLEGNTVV
T3 sequence (Q9H228 whole entry): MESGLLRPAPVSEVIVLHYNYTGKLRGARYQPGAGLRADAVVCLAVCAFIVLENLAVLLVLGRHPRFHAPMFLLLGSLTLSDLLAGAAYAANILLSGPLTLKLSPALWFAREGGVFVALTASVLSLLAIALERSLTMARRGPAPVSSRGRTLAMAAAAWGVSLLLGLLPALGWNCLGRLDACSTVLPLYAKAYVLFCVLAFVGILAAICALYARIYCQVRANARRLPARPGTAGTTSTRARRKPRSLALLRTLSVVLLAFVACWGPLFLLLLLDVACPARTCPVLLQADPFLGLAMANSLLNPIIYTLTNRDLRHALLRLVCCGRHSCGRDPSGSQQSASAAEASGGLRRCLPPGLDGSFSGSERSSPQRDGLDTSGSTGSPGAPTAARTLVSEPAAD

As usually defined, the EC50 is the concentration giving half of the maximal effect. Consider `CCCCCCCCCCCCNC(=O)[C@@H](N)COP(=O)(O)O` [VPC22041], for which the EC50 at hS1P2 is 973 nM; on hS1P1 it was 598 nM; at hS1P5 it was 646 nM; at mS1P5, > 5000 nM; on zS1P1, 2050 nM; on hS1P3, 845 nM.

Consider `CCCCCCc1cccc(NC(=O)[C@H](N)COP(=O)(O)O)c1.O=C(O)C(F)(F)F` [VPC23031], for which the “activity at the S1P2 receptor” value at hS1P2 is “failed to show significant activity; also recorded: inactive”. On hS1P3, the “activity at the S1P3 receptor (inverse agonism/antagonism or agonism)” value is “inverse agonists”.

`CCCCCCCCCCc1cccc(NC(=O)[C@H](N)COP(=O)(O)O)c1.O=C(O)C(F)(F)F` [VPC23069]: on hS1P2, the “activity at the S1P2 receptor” value is “failed to show significant activity; also recorded: inactive”. The “activity at the S1P3 receptor (inverse agonism/antagonism or agonism)” value at hS1P3 is “agonism”.

`CCCCCCCCCCCCCCCCNC(=O)[C@@H](N)COP(=O)(O)O` [VPC22063]: the EC50 at hS1P1 was 1800 nM; at hS1P5, 1220 nM; on mS1P5, 1330 nM; on zS1P1, > 5000 nM; on hS1P3, 879 nM.

On to `CCCCCCCCCCCCCCOC(=O)[C@@H](N)COP(=O)(O)O.O=C(O)C(F)(F)F` [VPC22053], for which the EC50 at hS1P2 was 2680 nM; at hS1P1, 397 nM; at hS1P5, 1610 nM; on mS1P5 (setting [1]), 2010 nM; on zS1P1 (setting [2]), > 5000 nM; on hS1P3, 862 nM. In addition, the “loss of potency relative to enantiomer VPC22135 at S1P1 receptor” value at hS1P1 is reported as “more than 1 log order”. The “loss of potency relative to enantiomer VPC22135 at S1P3 receptor” value at hS1P3 is “more than 1 log order”.

Turning to `CCCCCCCCCCCCCCNC(=O)[C@@H](N)COP(=O)(O)O` [VPC22051], the concentration for a half-maximal effect (EC50) on hS1P2 is 2760 nM; on hS1P1, 322 nM; on hS1P5, > 5000 nM; at mS1P5 (setting [1]), > 5000 nM; on zS1P1 (setting [2]) it was > 5000 nM; at hS1P3, 602 nM.

As to `CCCCCCCCCc1cccc(NC(=O)[C@H](N)CO)c1.O=C(O)C(F)(F)F` [VPC23075], the “agonist activity at S1P receptors” value with S1P receptors was “significant agonist activity”. Further, the “activity at the S1P2 receptor” value on hS1P2 was “failed to show significant activity; also recorded: inactive”. For the same molecule, on hS1P4, the “agonist activity at the S1P4 receptor” value is “good agonist activity”.

Consider `CCCCCCCCc1ccccc1NC(=O)[C@H](N)COP(=O)(O)O` [VPC23089], for which the “activity at the S1P2 receptor” value on hS1P2 is “failed to show significant activity; also recorded: inactive”. Besides, on hS1P3, the “activity at the S1P3 receptor (inverse agonism/antagonism or agonism)” value is listed as “inverse agonists”.

As to `CCCCCCCCCCCCCCNC(=O)[C@H](N)COP(=O)(O)O` [VPC22135], the EC50 at hS1P2 was found to be 2110 nM; on hS1P1 it was 12.7 nM; at mS1P5, 1820 nM; at zS1P1, 1620 nM; at hS1P3 it was 50.8 nM. In addition, the “potency relative to S1P at human S1P1 receptor” value on hS1P1 was “approached the potency of S1P”. Also, the “potency relative to S1P at human S1P3 receptor” value on hS1P3 is on record as “approached the potency of S1P”.

For `CCCCCCCCCCCCC/C=C/[C@@H](O)[C@@H](N)COP(=O)(O)O` [Compound S1P, Sphingosine-1-phosphate, reference compound], the EC50 was 0.9 nM at hS1P1, 12.7 nM at mS1P5, 54.6 nM at zS1P1 and 1.1 nM on hS1P3.

Regarding `CCCCCCCCc1cccc(NC(=O)[C@H](N)COP(=O)(O)O)c1` [VPC23019], the “activity at the S1P2 receptor” value on hS1P2 was “failed to show significant activity; also recorded: inactive”. The “activity at S1P1 (antagonism)” value at hS1P1 (competition with S1P) is on record as “antagonism”. In addition, the “activity at the S1P3 receptor (inverse agonism/antagonism or agonism)” value on hS1P3 is listed as “inverse agonists”.

Regarding `CCCCCCCCCc1cccc(NC(=O)[C@H](N)COP(=O)(O)O)c1.O=C(O)C(F)(F)F` [VPC23079], on hS1P2, the “activity at the S1P2 receptor” value is “failed to show significant activity; also recorded: inactive”. Further, the “activity at the S1P3 receptor (inverse agonism/antagonism or agonism)” value at hS1P3 is listed as “agonism”.

In the case of `CCCCCCCCc1ccccc1NC(=O)[C@H](N)CO.O=C(O)C(F)(F)F` [VPC23087], the “agonist activity at S1P receptors” value with S1P receptors is on record as “significant agonist activity”. Further, the “activity at the S1P2 receptor” value at hS1P2 is “failed to show significant activity; also recorded: inactive”. Further, the “agonist activity at the S1P4 receptor” value at hS1P4 is given as “good agonist activity”.

On to `CCCCCCCCCCc1cccc(NC(=O)[C@H](N)CO)c1.O=C(O)C(F)(F)F` [VPC23065], for which the “agonist activity at S1P receptors” value with S1P receptors is given as “significant agonist activity”. Also, the “activity at the S1P2 receptor” value on hS1P2 is “failed to show significant activity; also recorded: inactive”. In addition, the “agonist activity at the S1P4 receptor” value on hS1P4 is recorded as “good agonist activity”.
